Reference: US10376520B2, “Methods for the treatment of cardiovascular disorders” (Galapagos NV, priority 2015, dated 2019)

Tested on: RA patients
Assay: [HDL] determination, Study 2 (RA patients, monotherapy)
Format: in vivo, human
Source text: Randomized, double-blind, placebo-controlled, multicenter, phase IIb dose finding study of Compound 1 (dosed as a [Compound 1:HCl:3H2O]) administered for 24 weeks as monotherapy to subjects with moderately to severely active rheumatoid arthritis who have an inadequate response to methotrexate alone
Double-blind, placebo-controlled, monotherapy study in subjects with moderately to severely active RA who have an inadequate response to methotrexate (MTX) (oral or parenteral).
280 subjects randomized to one of 3 doses of Compound 1 (dosed as a [Compound 1:HCl:3H2O]) or to placebo, given once daily (q.d.).
Twelve weeks of treatment with Compound 1 (dosed as a [Compound 1:HCl:3H2O]) at 50 mg, 100 mg, or 200 mg q.d.; or placebo. At Week 12, all subjects on placebo and the subjects on the 50 mg dose who have not achieved 20% improvement in swollen joint count (SJC66) and tender joint count (TJC68) will be assigned to 100 mg q.d. in a blinded fashion and will continue treatment until Week 24. Subjects in the other groups will maintain their randomized treatment until Week 24.
This assay relies on a homogeneous enzymatic colorimetric test. In the presence of magnesium ions, dextran sulfate selectively forms water-soluble complexes with LDL, VLDL and chylomicrons which are resistant to PEG-modified enzymes.
The cholesterol concentration of [HDL]-cholesterol is determined enzymatically by cholesterol esterase and cholesterol oxidase coupled with PEG to the amino groups (approx. 40%).
In the presence of peroxidase, the hydrogen peroxide generated reacts with 4-amino-antipyrine and Sodium N-(2-hydroxy-3-sulfopropyl)-3,5-dimethoxyaniline (HSDA) to form a purple-blue dye. The color intensity of this dye is directly proportional to the cholesterol concentration and is measured photometrically.
Human serum and plasma samples [HDL] determination was done on a Roche/Hitachi Cobas c 701/702 system which automatically calculate the analyte concentration of each sample. Samples containing precipitates are centrifuged before performing the assay.

[1] = placebo switching to 100 mg q.d. at week 12 (N = 72), week 16
[2] = placebo switching to 100 mg q.d. at week 12 (N = 72), week 20
[3] = placebo switching to 100 mg q.d. at week 12 (N = 72), week 24
[4] = placebo switching to 100 mg q.d. at week 12, week 16
[5] = placebo switching to 100 mg q.d. at week 12, week 20
[6] = placebo switching to 100 mg q.d. at week 12, week 24

Structure (SMILES): O=C(Nc1nc2cccc(-c3ccc(CN4CCS(=O)(=O)CC4)cc3)n2n1)C1CC1 [Compound 1, cyclopropanecarboxylic acid {5-[4-(1,1-dioxo-thiomorpholin-4-ylmethyl)-phenyl]-[1,2,4]triazolo[1,5-a]pyridin-2yl}-amide]
- [HDL] Mean CFB - 24 weeks results (100 mg q.d. (N = 70), week 8): 0.17 mmol/L
- [HDL] Median CFB (100 mg q.d. (N = 70), week 8): 0.140 mmol/L
- [HDL] Median CFB - 24 weeks results (100 mg q.d. (N = 70), week 8): 0.14 mmol/L
- [HDL] Mean CFB (100 mg q.d. (N = 70), week 12): 0.190 mmol/L
- [HDL] Mean CFB - 24 weeks results (100 mg q.d. (N = 70), week 12): 0.19 mmol/L
- [HDL] Median CFB (100 mg q.d. (N = 70), week 12): 0.150 mmol/L
- [HDL] Median CFB - 24 weeks results (100 mg q.d. (N = 70), week 12): 0.15 mmol/L
- [HDL] Mean CFB - 24 weeks results (100 mg q.d. (N = 70), week 16): 0.23 mmol/L
- [HDL] Median CFB - 24 weeks results (100 mg q.d. (N = 70), week 16): 0.20 mmol/L
- [HDL] Mean CFB - 24 weeks results (100 mg q.d. (N = 70), week 20): 0.19 mmol/L
- [HDL] Median CFB - 24 weeks results (100 mg q.d. (N = 70), week 20): 0.17 mmol/L
- [HDL] Mean CFB - 24 weeks results (100 mg q.d. (N = 70), week 24): 0.18 mmol/L
- [HDL] Median CFB - 24 weeks results (100 mg q.d. (N = 70), week 24): 0.18 mmol/L
- [HDL] Mean percentage CFB - 12 weeks results (100 mg q.d., week 1): 7.49%
- [HDL] Mean percentage CFB - 24 weeks results (100 mg q.d., week 1): 7.49%
- [HDL] Median percentage CFB - 12 weeks results (100 mg q.d., week 1): 3.27%
- [HDL] Mean percentage CFB - 12 weeks results (100 mg q.d., week 2): 11.30%
- [HDL] Mean percentage CFB - 24 weeks results (100 mg q.d., week 2): 11.30%
- [HDL] Median percentage CFB - 12 weeks results (100 mg q.d., week 2): 8.75%
- [HDL] Mean percentage CFB - 12 weeks results (100 mg q.d., week 4): 15.65%
- [HDL] Mean percentage CFB - 24 weeks results (100 mg q.d., week 4): 15.65%
- [HDL] Median percentage CFB - 12 weeks results (100 mg q.d., week 4): 12.66%
- [HDL] Mean percentage CFB - 12 weeks results (100 mg q.d., week 8): 13.77%
- [HDL] Mean percentage CFB - 24 weeks results (100 mg q.d., week 8): 13.77%
- [HDL] Median percentage CFB - 12 weeks results (100 mg q.d., week 8): 9.33%
- [HDL] Mean percentage CFB - 12 weeks results (100 mg q.d., week 12): 15.23%
- [HDL] Mean percentage CFB - 24 weeks results (100 mg q.d., week 12): 15.23%
- [HDL] Median percentage CFB - 12 weeks results (100 mg q.d., week 12): 11.86%
- [HDL] Median percentage CFB - 24 weeks results (100 mg q.d., week 16): 14.81%
- [HDL] Mean percentage CFB - 24 weeks results (100 mg q.d., week 20): 14.51%
- [HDL] Median percentage CFB - 24 weeks results (100 mg q.d., week 20): 13.29%
- [HDL] Mean percentage CFB - 24 weeks results (100 mg q.d., week 24): 15.18%
- [HDL] Median percentage CFB - 24 weeks results (100 mg q.d., week 24): 12.54%
- [HDL] Mean CFB (200 mg q.d. (N = 69), week 1): 0.026 mmol/L
- [HDL] Mean CFB - 24 weeks results (200 mg q.d. (N = 69), week 1): 0.03 mmol/L
- [HDL] Median CFB (200 mg q.d. (N = 69), week 1): 0.030 mmol/L
- [HDL] Median CFB - 24 weeks results (200 mg q.d. (N = 69), week 1): 0.03 mmol/L
- [HDL] Mean CFB (200 mg q.d. (N = 69), week 2): 0.163 mmol/L
- [HDL] Mean CFB - 24 weeks results (200 mg q.d. (N = 69), week 2): 0.16 mmol/L
- [HDL] Median CFB (200 mg q.d. (N = 69), week 2): 0.150 mmol/L
- [HDL] Median CFB - 24 weeks results (200 mg q.d. (N = 69), week 2): 0.15 mmol/L
- [HDL] Mean CFB (200 mg q.d. (N = 69), week 4): 0.220 mmol/L
- [HDL] Mean CFB - 24 weeks results (200 mg q.d. (N = 69), week 4): 0.22 mmol/L
- [HDL] Median CFB (200 mg q.d. (N = 69), week 4): 0.210 mmol/L
- [HDL] Median CFB - 24 weeks results (200 mg q.d. (N = 69), week 4): 0.21 mmol/L
- [HDL] Mean CFB (200 mg q.d. (N = 69), week 8): 0.219 mmol/L
- [HDL] Mean CFB - 24 weeks results (200 mg q.d. (N = 69), week 8): 0.22 mmol/L
- [HDL] Median CFB (200 mg q.d. (N = 69), week 8): 0.200 mmol/L
- [HDL] Median CFB - 24 weeks results (200 mg q.d. (N = 69), week 8): 0.20 mmol/L
- [HDL] Mean CFB (200 mg q.d. (N = 69), week 12): 0.194 mmol/L
- [HDL] Mean CFB - 24 weeks results (200 mg q.d. (N = 69), week 12): 0.19 mmol/L
- [HDL] Median CFB (200 mg q.d. (N = 69), week 12): 0.150 mmol/L
- [HDL] Median CFB - 24 weeks results (200 mg q.d. (N = 69), week 12): 0.15 mmol/L
- [HDL] Mean CFB - 24 weeks results (200 mg q.d. (N = 69), week 16): 0.19 mmol/L
- [HDL] Median CFB - 24 weeks results (200 mg q.d. (N = 69), week 16): 0.16 mmol/L
- [HDL] Mean CFB - 24 weeks results (200 mg q.d. (N = 69), week 20): 0.21 mmol/L
- [HDL] Median CFB - 24 weeks results (200 mg q.d. (N = 69), week 20): 0.16 mmol/L
- [HDL] Mean CFB - 24 weeks results (200 mg q.d. (N = 69), week 24): 0.19 mmol/L
- [HDL] Median CFB - 24 weeks results (200 mg q.d. (N = 69), week 24): 0.16 mmol/L
- [HDL] Mean percentage CFB - 12 weeks results (200 mg q.d., week 1): 2.04%
- [HDL] Mean percentage CFB - 24 weeks results (200 mg q.d., week 1): 2.04%
- [HDL] Median percentage CFB - 12 weeks results (200 mg q.d., week 1): 2.50%
- [HDL] Mean percentage CFB - 12 weeks results (200 mg q.d., week 2): 11.20%
- [HDL] Mean percentage CFB - 24 weeks results (200 mg q.d., week 2): 11.20%
- [HDL] Median percentage CFB - 12 weeks results (200 mg q.d., week 2): 9.92%
- [HDL] Mean percentage CFB - 12 weeks results (200 mg q.d., week 4): 15.68%
- [HDL] Mean percentage CFB - 24 weeks results (200 mg q.d., week 4): 15.68%
- [HDL] Median percentage CFB - 12 weeks results (200 mg q.d., week 4): 14.18%
- [HDL] Mean percentage CFB - 12 weeks results (200 mg q.d., week 8): 15.24%
- [HDL] Mean percentage CFB - 24 weeks results (200 mg q.d., week 8): 15.24%
- [HDL] Median percentage CFB - 12 weeks results (200 mg q.d., week 8): 16.35%
- [HDL] Mean percentage CFB - 12 weeks results (200 mg q.d., week 12): 14.60%
- [HDL] Mean percentage CFB - 24 weeks results (200 mg q.d., week 12): 14.60%
- [HDL] Median percentage CFB - 12 weeks results (200 mg q.d., week 12): 12.00%
- [HDL] Mean percentage CFB - 24 weeks results (200 mg q.d., week 16): 13.07%
- [HDL] Mean percentage CFB - 24 weeks results (200 mg q.d., week 20): 15.18%
- [HDL] Median percentage CFB - 24 weeks results (200 mg q.d., week 20): 11.54%
- [HDL] Mean percentage CFB - 24 weeks results (200 mg q.d., week 24): 13.79%
- [HDL] Median percentage CFB - 24 weeks results (200 mg q.d., week 24): 11.96%
- [HDL] Mean CFB - 24 weeks results [1]: 0.19 mmol/L
- [HDL] Median CFB - 24 weeks results [1]: 0.16 mmol/L
- [HDL] Mean CFB - 24 weeks results [2]: 0.19 mmol/L
- [HDL] Median CFB - 24 weeks results [2]: 0.18 mmol/L
- [HDL] Mean CFB - 24 weeks results [3]: 0.16 mmol/L
- [HDL] Median CFB - 24 weeks results [3]: 0.15 mmol/L
- [HDL] Mean percentage CFB - 24 weeks results [4]: 16.36%
- [HDL] Median percentage CFB - 24 weeks results [4]: 10.82%
- [HDL] Mean percentage CFB - 24 weeks results [5]: 16.02%
- [HDL] Median percentage CFB - 24 weeks results [5]: 13.11%
- [HDL] Mean percentage CFB - 24 weeks results [6]: 13.47%
- [HDL] Median percentage CFB - 24 weeks results [6]: 11.36%
